Test results taken from US12661335B2, “Halogenated xanthene-containing topical anti-gram-positive bacterial ophthalmic composition and method” (Provectus Pharmatech, Inc., priority 2021, dated 2026).
In brackets after ≈: the same amount, converted by molar mass. Like-named read-outs stand apart in the source and are kept apart here.

Tests used:
[1] = test system: Mycobacterium kansasii 824 ™; assay: MIC, broth dilution method, dark condition; assay type: cell-based; conditions: Table 1 entry 27, 24 h
[2] = test system: Mycobacterium avium subsp. Avium 2285; assay: MIC, broth dilution method, dark condition; assay type: cell-based; conditions: Table 1 entry 26, 24 h
[3] = test system: Staphylococcus aureus strain AIS 1000505 (VRS10, a vancomycin-resistant strain); assay: MIC, broth dilution method, dark condition; assay type: cell-based; conditions: Table 1 entry 14, 24 h
[4] = test system: Staphylococcus aureus 6538 ™; assay: MIC, broth dilution method, dark condition; assay type: cell-based; conditions: Table 1 entry 4, 24 h
[5] = test system: Enterococcus faecalis 19433 ™; assay: MIC, broth dilution method, dark condition; assay type: cell-based; conditions: Table 1 entry 17, 24 h
[6] = test system: biofilms of E. faecium NR-32065; assay: Biofilm eradication assay; assay type: cell-based, Enterococcus faecium; conditions: fluorescent and dark conditions; concentration-dependent
Source text: Linezolid is not an effective drug in eradicating biofilms of Gram-positive bacteria, but has a beneficial effect in prevention of biofilm formations [Reiter et al., J. Med. Microbiol. 62:394-399 (2013)], and was used as a control.
We confirm that RB is an excellent agent to eradicate biofilms of Gram-positive bacteria, including drug-resistant strains. […] These studies indicate that RB has the potential antibacterial agent to kill drug-resistant bacteria in any growth phases.

[7] = test system: F. solani; conditions: three days of incubation, cited from earlier work
[8] = test system: Enterococcus faecium 349 ™; assay: MIC, broth dilution method, dark condition; assay type: cell-based; conditions: Table 1 entry 18, 24 h
[9] = test system: Staphylococcus aureus subsp. Aureus BAA-42 ™ (a MRSA strain); assay: MIC, broth dilution method, dark condition; assay type: cell-based; conditions: Table 1 entry 7, 24 h
[10] = test system: Staphylococcus aureus subsp. Aureus BAA-1683 (a MRSA strain); assay: MIC, broth dilution method, dark condition; assay type: cell-based; conditions: Table 1 entry 5, 24 h
[11] = test system: Streptococcus salivarius subsp. Salivarius 7073 ™; assay: MIC, broth dilution method, dark condition; assay type: cell-based
[12] = test system: A. fumigattus; conditions: three days of incubation, cited from earlier work
[13] = test system: Staphylococcus aureus subsp. Aureus 33592 ™ (a methicillin and gentamicin resistant strain); assay: MIC, broth dilution method, dark condition; assay type: cell-based; conditions: Table 1 entry 11, 24 h
[14] = test system: Enterococcus faecium UAA714 (a vancomycin-resistant strain); assay: MIC, broth dilution method, dark condition; assay type: cell-based; conditions: Table 1 entry 22, 24 h
[15] = test system: Enterococcus faecium NR-32065 (a vancomycin- resistant strain); assay: MIC, broth dilution method, dark condition; assay type: cell-based; conditions: Table 1 entry 20, 24 h
[16] = test system: Mycobacteroides abscessus 19977 ™; assay: MIC, broth dilution method, dark condition; assay type: cell-based; conditions: Table 1 entry 29, 24 h
[17] = test system: patient-isolated methicillin-resistant Staphylococcus aureus (MRSA); conditions: cited from earlier work
[18] = test system: Mycobacterium smagmatis 607 ™; assay: MIC, broth dilution method, dark condition; assay type: cell-based, Mycobacterium smegmatis
[19] = test system: Bacillus cereus 13061 ™; assay: MIC, broth dilution method, dark condition; assay type: cell-based; conditions: Table 1 entry 3, 24 h
[20] = test system: Staphylococcus aureus BR 5 (A methicillin and vancomycin resistant strain); assay: MIC, broth dilution method, dark condition; assay type: cell-based; conditions: Table 1 entry 13, 24 h
[21] = test system: Gram-positive bacteria; assay: MIC summary for Gram-positive bacteria, broth dilution; assay type: cell-based
Source text: Under the dark condition RB is known to display antibacterial activity at high concentrations.
Provectus has established a manufacturing and purification process for pharmaceutical-grade RB that fulfills both cGMP and ICH requirements. We have evaluated the antibacterial activity and cytotoxicity of a pharmaceutical-grade RB formulated product (PV-10®) as an exemplary RB compound in illuminating and dark conditions.

[22] = test system: Bacillus cereus NRRL B-569; assay: MIC, broth dilution method, dark condition; assay type: cell-based; conditions: NRRLB569, Table 1 entry 2, 24 h
[23] = test system: Staphylococcus aureus USA100 strains 71080 (VRS8, a vancomycin-resistant strain); assay: MIC, broth dilution method, dark condition; assay type: cell-based; conditions: Table 1 entry 15, 24 h
[24] = test system: Bacillus subtilis ATCC6051; assay: MIC, broth dilution method, dark condition; assay type: cell-based; conditions: Table 1 entry 1, 24 h
[25] = test system: Staphylococcus aureus subsp. Aureus BAA-44 ™ (a MRSA strain); assay: MIC, agar dilution method; assay type: cell-based; conditions: Table 2 fourth entry (printed 1), dark
Source text: (§1) The MIC values of RB determined by the agar dilution method differed from those determined by the broth dilution method (Table 1). Selected examples of the MIC values determined by the agar dilution method are summarized in Table 2 shown by renumbering the assayed microbes.

[26] = test system: Mycobacterium smegmatis 607 ™; assay: MIC, agar dilution method; assay type: cell-based; conditions: Mycolicibacterium smegmatis, Table 2 entry 5, dark
Source text: as §1

[27] = test system: Bacillus cereus 13061 ™; assay: MIC, agar dilution method; assay type: cell-based; conditions: Table 2 entry 2, dark
Source text: as §1

[28] = test system: Staphylococcus aureus 6538 ™; assay: MIC, agar dilution method; assay type: cell-based; conditions: Table 2 entry 3, dark
Source text: as §1

[29] = test system: Bacillus subtilis ATCC6051; assay: MIC, agar dilution method; assay type: cell-based; conditions: Table 2 entry 1, dark
Source text: as §1

[30] = test system: Enterococcus faecium patient #3-1, NR-31912 (a vancomycin-resistant strain); assay: MIC, broth dilution method, dark condition; assay type: cell-based; conditions: Table 1 entry 21, 24 h

Compound: O=C(O)c1c(Cl)c(Cl)c(Cl)c(Cl)c1-c1c2cc(I)c(=O)c(I)c-2oc2c(I)c(O)c(I)cc12 [RB, 4,5,6,7-tetrachloro-2′,4′,5′,7′-tetraiodofluorescein]
- MIC [1]: 50 µg/mL (≈ 51.4 µM)
- MIC [2]: 50 µg/mL (≈ 51.4 µM)
- MIC [3]: 25 µg/mL (≈ 25.7 µM)
- MIC [4]: 50 µg/mL (≈ 51.4 µM)
- MIC [5]: 25 µg/mL (≈ 25.7 µM)
- viable cells in biofilm [6]: significantly reduced
- Day 3 Growth Inhibition Percentage, RB + 518 nm Irradiation ([7]; 518 nm, 5.4 J/cm^2): 78.2 ± 2.1 Percentage
- Day 3 Growth Inhibition Percentage, RB Only ([7]; dark, no irradiation): 7.3 ± 1.1 Percentage
- MIC [8]: 50 µg/mL (≈ 51.4 µM)
- MIC [9]: 50 µg/mL (≈ 51.4 µM)
- MIC [10]: 50 µg/mL (≈ 51.4 µM)
- MIC ([11]; Streptococcus salivarius, Table 1 entry 23, broth dilution, dark, 24 h): 25 µg/mL (≈ 25.7 µM)
- susceptibility to RB ([11]; entry 23): susceptible
- Day 3 Growth Inhibition Percentage, RB + 518 nm Irradiation ([12]; 518 nm, 5.4 J/cm^2): 79.8 ± 9 Percentage
- Day 3 Growth Inhibition Percentage, RB Only ([12]; dark, no irradiation): 6.6 ± 0. Percentage
- MIC [13]: 50 µg/mL (≈ 51.4 µM)
- MIC [14]: 50 µg/mL (≈ 51.4 µM)
- MIC [15]: 50 µg/mL (≈ 51.4 µM)
- MIC [16]: 50 µg/mL (≈ 51.4 µM)
- growth inhibition of MRSA strain 1 ([17]; RB 0.03% in dark conditions): incomplete inhibition
- growth inhibition of MRSA strain 2 ([17]; RB 0.03% in dark conditions): complete inhibition
- growth inhibition of both MRSA strains ([17]; RB 0.1% in the dark): Complete growth inhibition
- growth inhibition of both MRSA strains ([17]; RB 0.1 and 0.03%, ambient room light or green LED irradiation (5.4 J/cm^2)): Complete growth inhibition
- MIC ([18]; Mycobacterium, Table 1 entry 25, broth dilution, dark, 24 h, read-out: MIC): 25 µg/mL (≈ 25.7 µM)
- MIC ([18]; dark condition, triplicated, read-out: MIC (μg/mL) against M. smegmatis 607 ™ (wild-type)): 12.5 µg/mL (≈ 12.8 µM)
- MIC [19]: 50 µg/mL (≈ 51.4 µM)
- MIC [20]: 25 µg/mL (≈ 25.7 µM)
- concentration showing antibacterial activity against all Gram-positive bacteria of entries 1-23 ([21]; dark condition, Table 1): 25.0 to 100 µg/mL
- MIC ([21]; saline-diluted PV-10, except Streptococcus pneumoniae sp., lighting not given, read-out: MIC against most Gram-positive bacteria): 0.39 to 3.1 µg/mL (≈ 0.401 to 3.18 µM)
- MIC [22]: 50 µg/mL (≈ 51.4 µM)
- MIC [23]: 25 µg/mL (≈ 25.7 µM)
- MIC [24]: 50 µg/mL (≈ 51.4 µM)
- MIC [25]: 50 µg/mL (≈ 51.4 µM)
- MIC [26]: 50 µg/mL (≈ 51.4 µM)
- MIC [27]: 125 µg/mL (≈ 128 µM)
- MIC [28]: 25 µg/mL (≈ 25.7 µM)
- MIC [29]: 125 µg/mL (≈ 128 µM)
- MIC [30]: 50 µg/mL (≈ 51.4 µM)
